From patent US7060822B1, “2-pyrazolin-5-ones” (Abbott GmbH & Co. KG, priority 1999, dated 2006)

melting point	Structure (SMILES)
280 to 282 °C	O=C1NN=C([C@@H]2C[C@H]2c2ccccc2)C1=Cc1c[nH]c2ccccc12 (relative stereo) [Example 285, 4-[(Indol-3-yl)methylene]-3-(trans-2-phenyl-1-cyclopropyl)-2-pyrazolin-5-one]
288 to 292 °C	O=C1NN=C(c2c[nH]c3ccccc23)C1=Cc1c[nH]c2ccccc12 [Example 230, 3-(Indol-3-yl)-4-[(indol-3-yl)methylene]-2-pyrazolin-5-one]
267 to 269 °C	COC(=O)CCC1=NNC(=O)C1=Cc1c[nH]c2ccccc12 [Example 284, 4-[(Indol-3-yl)methylene]-3-(2-methoxycarbonylethyl)-2-pyrazolin-5-one]
265 to 268 °C	O=C1NN=C(COc2cccc(Cl)c2)C1=Cc1c[nH]c2ccccc12 [Example 229, 3-(3-Chlorophenyloxymethyl)-4-[(indol-3-yl)methylene]-2-pyrazolin-5-one]
246 to 247 °C	Cn1cc(C=C2C(=O)NN=C2N)c2ccccc21 [Example 299, 3-Amino-4-[(1-methylindol-3-yl)methylene]-2-pyrazolin-5-one]
274 to 277 °C	Cc1[nH]c(C=C2C(=O)NN=C2c2cnccn2)c(C)c1CN1CCOCC1 [Example 128, 4-[(3,5-dimethyl-4-morpholinomethylpyrrol-2-yl)methylene]-3-pyrazinyl-2-pyrazolin-5-one]
211 to 213 °C	CCOC1=NNC(=O)C1=Cc1ccc[nH]1 [Example 31, 3-Ethoxy-4-[(pyrrol-2-yl)methylene]-2-pyrazolin-5-one]
160 to 164 °C (dec.)	Cn1cc(C=C2C(=O)NN=C2NC2CC2)c2ccccc21 [Example 292, 3-Cyclopropylamino-4-[(1-methylindol-3-yl)methylene]-2-pyrazolin-5-one]
218 to 220 °C	CCN(CC)CCc1c(C)[nH]c(C=C2C(=O)NN=C2c2cccnn2)c1C [Example 207, 4-{[4-(2-Diethylaminoethyl)-3,5-dimethylpyrrol-2-yl]methylene}-3-(3-pyridazinyl)-2-pyrazolin-5-one]
286 to 288 °C	Cc1cccc2c(C=C3C(=O)NN=C3C3CC3)c[nH]c12 [Example 274, 3-Cyclopropyl-4-[(7-methylindol-3-yl)methylene]-2-pyrazolin-5-one]
238 to 239 °C	COc1ccc2c(c1)c(C=C1C(=O)NN=C1OC(C)C)cn2C [Example 295, 3-Isopropoxy-4-[(5-methoxy-1-methylindol-3-yl)methylene]-2-pyrazolin-5-one]
297 to 299 °C	CCc1c(C)[nH]c(C=C2C(=O)NN=C2CCc2ccc(C(N)=O)cc2)c1C [Example 47, 3-(4-Carbamoylphenylethyl)-4-[(3,5-dimethyl-4-ethylpyrrol-2-yl)methylene]-2-pyrazolin-5-one]
260 to 262 °C	CCc1c(C)[nH]c(C=C2C(=O)NN=C2CCc2ccc(O)cc2)c1C [Example 52, 4-[(3,5-Dimethyl-4-ethylpyrrol-2-yl)methylene]-3-(4-hydroxyphenylethyl)-2-pyrazolin-5-one]
175 to 177 °C	Cc1[nH]c(C=C2C(=O)NN=C2C2CC2)c(C)c1CN1CCOCC1 [Example 97, 3-Cyclopropyl-4-[(3,5-dimethyl-4-morpholinomethylpyrrol-2-yl)methylene]-2-pyrazolin-5-one]
212 to 216 °C	CCOC(=O)c1c[nH]c(C=C2C(=O)NN=C2OCC)c1 [Example 148, 3-Ethoxy-4-[(4-ethoxycarbonylpyrrol-2-yl)methylene]-2-pyrazolin-5-one]
204 to 206 °C	COc1ccc(CC2=NNC(=O)C2=Cc2cn(CCCCO)c3ccccc23)cc1 [Example 224, 4-{[1-(4-hydroxybutyl)indol-3-yl]methylene}-3-(4-methoxybenzyl)-2-pyrazolin-5-one]
246 to 247 °C	CCCOC1=NNC(=O)C1=Cc1c[nH]c2ccccc12 [Example 241, 4-[(Indol-3-yl)methylene]-3-propoxy-2-pyrazolin-5-one]
212 to 216 °C	CCN(CC)CCc1c(C)[nH]c(C=C2C(=O)NN=C2c2ccnnc2)c1C [Example 209, 4-{[4-(2-Diethylaminoethyl)-3,5-dimethylpyrrol-2-yl]methylene}-3-(4-pyridazinyl)-2-pyrazolin-5-one]
300 to 304 °C	O=C1NN=C(C2CCCC2)C1=Cc1c[nH]c2ccccc12 [Example 263, 3-Cyclopentyl-4-[(indol-3-yl)methylene]-2-pyrazolin-5-one]
178 to 180 °C	O=C1NN=C(Cc2ccc(Cl)cc2)C1=Cc1ccc[nH]1 [Example 17, 3-(4-Chlorobenzyl)-4-[(pyrrol-2-yl)methylene]-2-pyrazolin-5-one]
209 to 211 °C	Cc1[nH]c(C=C2C(=O)NN=C2c2ccco2)c(C)c1CN(C)C [Example 142, 4-[(3,5-Dimethyl-4-dimethylaminomethylpyrrol-2-yl)methylene]-3-(2-furyl)-2-pyrazolin-5-one]
207 to 210 °C	Cc1ccc(OCC2=NNC(=O)C2=Cc2ccc[nH]2)cc1 [Example 9, 3-(4-Methylphenyloxymethyl)-4-[(pyrrol-2-yl)methylene]-2-pyrazolin-5-one]

melting point	Structure (SMILES)
165 to 167 °C	Cc1[nH]c(C=C2C(=O)NN=C2OC(C)C)c(C)c1C(=O)OCCN(C)C [Example 88, 4-{[4-(2-Dimethylaminoethoxycarbonyl)-3,5-dimethylpyrrol-2-yl]methylene}-3-isopropoxy-2-pyrazolin-5-one]
254 to 255 °C	Cc1ccc(CC2=NNC(=O)C2=Cc2ccc[nH]2)cc1 [Example 14, 3-(4-Methylbenzyl)-4-[(pyrrol-2-yl)methylene]-2-pyrazolin-5-one]
170 to 172 °C	COc1ccc2[nH]c(C=C3C(=O)NN=C3c3ccccn3)cc2c1 [Example 328, 4-[(5-Methoxyindol-2-yl)methylene]-3-(2-pyridyl)-2-pyrazolin-5-one]
300 to 302 °C	O=C1NN=C(c2ccc[nH]2)C1=Cc1c[nH]c2ccccc12 [Example 271, 4-[(Indol-3-yl)methylene]-3-(pyrrol-2-yl)-2-pyrazolin-5-one]
288 to 290 °C	COc1cccc(CC2=NNC(=O)C2=Cc2c[nH]c3ccccc23)c1 [Example 226, 4-[(Indol-3-yl)methylene]-3-(3-methoxybenzyl)-2-pyrazolin-5-one]
176 to 178 °C	Cc1[nH]c(C=C2C(=O)NN=C2C2CC2)c(C)c1CN(C)C [Example 100, 3-Cyclopropyl-4-[(3,5-dimethyl-4-dimethylaminomethylpyrrol-2-yl)methylene]-2-pyrazolin-5-one]
186 to 187 °C	Cc1cc(C)c(C=C2C(=O)NN=C2CCc2ccccc2)[nH]1 [Example 28, 4-[(3,5-Dimethylpyrrol-2-yl)methylene]-3-phenylethyl-2-pyrazolin-5-one]
> 300 °C	COc1ccc(NC(=O)CC2=NNC(=O)C2=Cc2c[nH]c3ccccc23)cc1 [Example 255, 4-[(Indol-3-yl)methylene]-3-(4-methoxyphenylaminocarbonylmethyl)-2-pyrazolin-5-one]
220 to 222 °C	O=C1NN=C(C2CCC2)C1=Cc1cn(CCCCO)c2ccccc12 [Example 286, 3-Cyclobutyl-4-{[1-(4-hydroxybutyl)indol-3-yl]methylene}-2-pyrazolin-5-one]
212 to 214 °C	CC(C)OC1=NNC(=O)C1=Cc1ccc(-c2ccccc2)[nH]1 [Example 76, 3-Isopropoxy-4-[(5-phenylpyrrol-2-yl)methylene]-2-pyrazolin-5-one]
> 300 °C	O=C1NN=C(c2ccncc2)C1=Cc1c[nH]c2ccccc12 [Example 262, 4-[(Indol-3-yl)methylene]-3-(4-pyridyl)-2-pyrazolin-5-one]
218 to 222 °C	O=C1NN=C(COc2ccc(Cl)cc2)C1=Cc1ccc[nH]1 [Example 5, 3-(4-Chlorophenyloxymethyl)-4-[(pyrrol-2-yl)methylene]-2-pyrazolin-5-one]
284 to 286 °C	O=C1NN=C(COc2ccccc2)C1=Cc1c[nH]c2ccccc12 [Example 213, 4-[(Indol-3-yl)methylene]-3-phenyloxymethyl-2-pyrazolin-5-one]
> 300 °C	COc1ccc2nc(C3=NNC(=O)C3=Cc3c[nH]c4ccccc34)sc2c1 [Example 272, 4-[(Indol-3-yl)methylene]-3-(6-methoxybenzothiazol-2-yl)-2-pyrazolin-5-one]
252 to 253 °C	Cn1cc(C=C2C(=O)NN=C2NC(=O)C(F)(F)F)c2ccccc21 [Example 297, 4-[(1-Methylindol-3-yl)methylene]-3-trifluoroacetamido-2-pyrazolin-5-one]
199 °C	CCN(CC)CC(=O)c1c(C)[nH]c(C=C2C(=O)NN=C2c2cnccn2)c1C [Example 196, 4-[(4-Diethylaminoacetyl-3,5-dimethylpyrrol-2-yl)methylene]-3-pyrazinyl-2-pyrazolin-5-one]
224 to 226 °C	O=C1NN=C(CCc2ccc([N+](=O)[O-])cc2)C1=Cc1ccc[nH]1 [Example 32, 3-(4-Nitrophenylethyl)-4-[(pyrrol-2-yl)methylene]-2-pyrazolin-5-one]
265 to 267 °C	CCOC1=NNC(=O)C1=Cc1cc2ccccc2[nH]1 [Example 324, 3-Ethoxy-4-[(indol-2-yl)methylene]-2-pyrazolin-5-one]
160 to 162 °C	CC1(C)C(C2=NNC(=O)C2=Cc2ccc[nH]2)C1(C)C [Example 60, 4-[(Pyrrol-2-yl)methylene]-3-(2,2,3,3-tetramethylcyclopropyl)-2-pyrazolin-5-one]
188 to 190 °C	CCc1c(C)[nH]c(C=C2C(=O)NN=C2OC(C)C)c1C [Example 36, 4-[(3,5-Dimethyl-4-ethylpyrrol-2-yl)methylene]-3-isopropoxy-2-pyrazolin-5-one]
132 to 134 °C	CCOC(=O)c1c[nH]c(C=C2C(=O)NN=C2OCC)c1C(=O)OCC [Example 147, 4-[(3,4-Di(ethoxycarbonyl)pyrrol-2-yl)methylene]-3-ethoxy-2-pyrazolin-5-one]
